Test results from patent publication US4159373A, “7-Acyl-3-(sulfonic acid and sulfamoyl substituted tetrazolyl thiomethyl) cephalosporins” (SmithKline Corporation, priority 1978, dated 1979).
Values after ≈ are worked out from the molar mass of the structure shown. Read-outs that look alike come from different tables or passages of the source.

How the values were obtained:
Kleb. pneumo. SK 4200 = test: MIC in vitro; format: cell-based, Kleb. pneumoniae; conditions: Klebsiella pneumoniae, Table 1; Kleb. pneumo. SK 4200; read-out: MIC in vitro
Description: (§1) The compounds of Formula I have exceptional antibacterial activity against both Gram-positive and Gram-negative organisms. Minimum inhibitory concentrations (MIC's) ranged from 0.2 to <200 μg./ml. in in vitro testing.

Kleb. pneumo. SK 1200 = test: MIC in vitro; format: cell-based, Kleb. pneumoniae; conditions: Klebsiella pneumoniae, read-out: MIC in vitro
Description: as §1

S. villaluz = test: MIC in vitro; format: cell-based; conditions: Table 1
Description: as §1

Strep. Faecalis HH 34358 = test: MIC in vitro; format: cell-based; conditions: Enterococcus faecalis, Table 1; Strep. Faecalis HH 34358; read-out: MIC in vitro
Description: as §1

Salmonella ATCC 12176 = test: MIC in vitro; format: cell-based; conditions: Salmonella, ATCC12176, Table 1, read-out: MIC in vitro
Description: as §1

Proteus morgani 179 = test: MIC in vitro; format: cell-based; conditions: Table 1, read-out: MIC in vitro
Description: as §1

E. coli SK 12140 = test: MIC in vitro; format: cell-based; conditions: Escherichia coli, E. coli SK 12140
Description: as §1

S. aureus SK 23390 = test: MIC in vitro; format: cell-based; conditions: Staphylococcus aureus, SK23390, Table 1; S. aureus SK 23390; read-out: MIC in vitro
Description: as §1

S. aureus HH 127 = test: MIC in vitro; format: cell-based; conditions: Staphylococcus aureus, HH127; Table 1; S. aureus HH 127; read-out: MIC in vitro
Description: as §1

shigella HH 117 = test: MIC in vitro; format: cell-based; conditions: HH117; Table 1; shigella HH 117; read-out: MIC in vitro
Description: as §1

E. coli HH 33779 = test: MIC in vitro; format: cell-based; conditions: Escherichia coli
Description: as §1

Psuedo. sp. HH 63 = test: MIC in vitro; format: cell-based, Pseudo. aeruginosa; conditions: Pseudomonas aeruginosa; Table 1; Psuedo. sp. HH 63; read-out: MIC in vitro
Description: as §1

E. coli 12140 = test: In vivo mouse protection, E. coli 12140; conditions: Table 2, E. coli 12140, read-out: ED50 in vivo
Entero. cloacae HH 31254 = test: MIC in vitro; format: cell-based; conditions: Enterobacter cloacae
Serra. marc ATCC 13880 = test: MIC in vitro; format: cell-based, Serratia marcescens; conditions: Serratia marcescens
Description: as §1

Kleb. pneumo. 4200 = test: In vivo mouse protection, Kleb. pneumo. 4200; conditions: sc, Table 2, Kleb. pneumo. 4200, s.c., read-out: ED50 in vivo
[1] = system: Entero. aerog. ATCC 13048; test: MIC in vitro; format: cell-based, Enterobacter aerogenes; conditions: Klebsiella aerogenes
Description: as §1

[2] = SK12140, Table 1, read-out: MIC in vitro
[3] = HH33779, Table 1, E. coli HH 33779, read-out: MIC in vitro
[4] = Escherichia coli, 12140, po, p.o.
[5] = Escherichia coli, 12140, sc, s.c.
[6] = HH31254, Table 1, read-out: MIC in vitro
[7] = ATCC13880, Table 1, Serra. marc ATCC 13880, read-out: MIC in vitro
[8] = ATCC13048, Table 1, Entero. aerog. ATCC 13048, read-out: MIC in vitro
[9] = SK12140, read-out: MIC in vitro, Table 1
[10] = HH31254, read-out: MIC in vitro, Table 1

**Q.** Which results are given for `NS(=O)(=O)CCn1nnnc1SCC1=C(C(=O)O)N2C(=O)C(NC(=O)Cc3cccs3)[C@H]2SC1` (some centres unmarked) [VIII, 7-(2-thienylacetamido)-3-[1-(2-sulfamoylethyl)tetrazol-5-ylthiomethyl]-3-cephem-4-carboxylic acid]?
**A.** MIC (Kleb. pneumo. SK 4200): 1.6 µg/mL (≈ 2.93 µM); MIC (Kleb. pneumo. SK 1200): 0.4 µg/mL (≈ 0.733 µM); MIC (S. villaluz): 1.6 µg/mL (≈ 2.93 µM); MIC (Strep. Faecalis HH 34358): 6.3 µg/mL (≈ 11.5 µM); MIC (Salmonella ATCC 12176): 0.8 µg/mL (≈ 1.47 µM); MIC (Proteus morgani 179): > 200 µg/mL; MIC (E. coli SK 12140; [2]): 0.8 µg/mL (≈ 1.47 µM); MIC (S. aureus SK 23390): 0.1 µg/mL (≈ 0.183 µM); MIC (S. aureus HH 127): 0.4 µg/mL (≈ 0.733 µM); MIC (shigella HH 117): 0.4 µg/mL (≈ 0.733 µM); MIC (E. coli HH 33779; [3]): 1.6 µg/mL (≈ 2.93 µM); MIC (Psuedo. sp. HH 63): > 200 µg/mL; ED50 (E. coli 12140; [4]): > 50 mg/kg; ED50 (E. coli 12140; [5]): 1.32 mg/kg; MIC (Entero. cloacae HH 31254; [6]): 0.8 µg/mL (≈ 1.47 µM); MIC (Serra. marc ATCC 13880; [7]): 200 µg/mL (≈ 367 µM); ED50 (Kleb. pneumo. 4200): 2 mg/kg; MIC [1, 8]: 3.1 µg/mL (≈ 5.68 µM)

**Q.** For `O=C(Cn1cnnn1)NC1C(=O)N2C(C(=O)O)=C(CSc3nnnn3CS(=O)(=O)O)CSC12` (centres unmarked) [X, 7-(1-tetrazolylacetamido)-3-(1-sulfomethyltetrazol-5-ylthiomethyl)-3-cephem-4-carboxylic acid], which MIC (Kleb. pneumo. SK 4200) is on record?
**A.** 0.4 µg/mL (≈ 0.771 µM)

**Q.** What about the MIC (Kleb. pneumo. SK 1200; Table 1, Kleb. pneumo. SK 1200) of the same molecule?
**A.** 0.2 µg/mL (≈ 0.386 µM)

**Q.** What about the MIC (S. villaluz) of the same molecule?
**A.** > 200 µg/mL

**Q.** And the MIC (Strep. Faecalis HH 34358)?
**A.** 50 µg/mL (≈ 96.4 µM)

**Q.** What about the MIC (Salmonella ATCC 12176) of the same molecule?
**A.** 0.4 µg/mL (≈ 0.771 µM)

**Q.** What about the MIC (Proteus morgani 179) of the same molecule?
**A.** 200 µg/mL (≈ 386 µM)

**Q.** And the MIC (E. coli SK 12140; [9])?
**A.** 0.4 µg/mL (≈ 0.771 µM)

**Q.** What about the MIC (S. aureus SK 23390) of the same molecule?
**A.** 1.6 µg/mL (≈ 3.09 µM)

**Q.** What about the MIC (S. aureus HH 127) of the same molecule?
**A.** 1.6 µg/mL (≈ 3.09 µM)

**Q.** And the MIC (shigella HH 117)?
**A.** 0.2 µg/mL (≈ 0.386 µM)

**Q.** And the MIC (E. coli HH 33779; [3])?
**A.** 0.8 µg/mL (≈ 1.54 µM)

**Q.** What about the MIC (Psuedo. sp. HH 63) of the same molecule?
**A.** > 200 µg/mL

**Q.** And the ED50 (E. coli 12140; [4])?
**A.** 50 mg/kg

**Q.** And the ED50 (E. coli 12140; [5])?
**A.** 1.56 mg/kg

**Q.** And the MIC (Entero. cloacae HH 31254; [10])?
**A.** 0.8 µg/mL (≈ 1.54 µM)

**Q.** What about the MIC (Serra. marc ATCC 13880; [7]) of the same molecule?
**A.** 200 µg/mL (≈ 386 µM)

**Q.** What about the ED50 (Kleb. pneumo. 4200) of the same molecule?
**A.** 0.64 mg/kg

**Q.** What about the MIC [1, 8] of the same molecule?
**A.** 3.1 µg/mL (≈ 5.98 µM)

**Q.** For `NCc1ccccc1CC(=O)NC1C(=O)N2C(C(=O)O)=C(CSc3nnnn3CS(=O)(=O)O)CS[C@H]12` (some centres unmarked) [XI, 7-(o-aminomethylphenylacetamido)-3-(1-sulfomethyltetrazol-5-ylthiomethyl)-3-cephem-4-carboxylic acid], which MIC (Kleb. pneumo. SK 4200) is on record?
**A.** ≤ 0.1 µg/mL

**Q.** And the MIC (Kleb. pneumo. SK 1200; Table 1, Kleb. pneumo. SK 1200)?
**A.** ≤ 0.1 µg/mL

**Q.** What about the MIC (S. villaluz) of the same molecule?
**A.** 200 µg/mL (≈ 360 µM)

**Q.** What about the MIC (Strep. Faecalis HH 34358) of the same molecule?
**A.** 25 µg/mL (≈ 45 µM)

**Q.** And the MIC (Salmonella ATCC 12176)?
**A.** ≤ 0.1 µg/mL

**Q.** And the MIC (Proteus morgani 179)?
**A.** 50 µg/mL (≈ 90 µM)

**Q.** And the MIC (E. coli SK 12140; [9])?
**A.** 0.2 µg/mL (≈ 0.36 µM)

**Q.** What about the MIC (S. aureus SK 23390) of the same molecule?
**A.** 1.6 µg/mL (≈ 2.88 µM)

**Q.** What about the MIC (S. aureus HH 127) of the same molecule?
**A.** 1.6 µg/mL (≈ 2.88 µM)

**Q.** What about the MIC (E. coli HH 33779; HH33779, read-out: MIC in vitro) of the same molecule?
**A.** 0.4 µg/mL (≈ 0.72 µM)

**Q.** What about the MIC (Psuedo. sp. HH 63) of the same molecule?
**A.** > 200 µg/mL

**Q.** What about the ED50 (E. coli 12140; [5]) of the same molecule?
**A.** 21.5 mg/kg

**Q.** And the MIC (Entero. cloacae HH 31254; [10])?
**A.** 0.8 µg/mL (≈ 1.44 µM)

**Q.** And the MIC (Serra. marc ATCC 13880; ATCC13880, read-out: MIC in vitro)?
**A.** 6.3 µg/mL (≈ 11.3 µM)

**Q.** And the MIC ([1]; ATCC13048, read-out: MIC in vitro)?
**A.** 0.8 µg/mL (≈ 1.44 µM)

**Q.** How did the MIC (Kleb. pneumo. SK 4200) turn out when `N#CCC(=O)NC1C(=O)N2C(C(=O)O)=C(CSc3nnnn3CS(=O)(=O)O)CS[C@H]12` (some centres unmarked) [XII, 7-cyanoacetamido-3-(1-sulfomethyltetrazol-5-ylthiomethyl)-3-cephem-4-carboxylic acid] was run?
**A.** 0.8 µg/mL (≈ 1.68 µM)

**Q.** And the MIC (Kleb. pneumo. SK 1200)?
**A.** 0.4 µg/mL (≈ 0.841 µM)

**Q.** What about the MIC (S. villaluz) of the same molecule?
**A.** > 200 µg/mL

**Q.** And the MIC (Strep. Faecalis HH 34358)?
**A.** 50 µg/mL (≈ 105 µM)

**Q.** What about the MIC (Salmonella ATCC 12176) of the same molecule?
**A.** 0.4 µg/mL (≈ 0.841 µM)

**Q.** What about the MIC (Proteus morgani 179) of the same molecule?
**A.** 200 µg/mL (≈ 421 µM)

**Q.** And the MIC (E. coli SK 12140; [2])?
**A.** 0.8 µg/mL (≈ 1.68 µM)

**Q.** What about the MIC (S. aureus SK 23390) of the same molecule?
**A.** 1.6 µg/mL (≈ 3.36 µM)

**Q.** And the MIC (S. aureus HH 127)?
**A.** 1.6 µg/mL (≈ 3.36 µM)

**Q.** And the MIC (E. coli HH 33779; [3])?
**A.** 1.6 µg/mL (≈ 3.36 µM)

**Q.** What about the MIC (Psuedo. sp. HH 63) of the same molecule?
**A.** > 200 µg/mL

**Q.** What about the MIC (Entero. cloacae HH 31254; [6]) of the same molecule?
**A.** 1.6 µg/mL (≈ 3.36 µM)

**Q.** What about the MIC (Serra. marc ATCC 13880; [7]) of the same molecule?
**A.** 50 µg/mL (≈ 105 µM)

**Q.** And the MIC [1, 8]?
**A.** 3.1 µg/mL (≈ 6.52 µM)
